According to PubChem BioAssay (NCI):
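Step 1: Grow cells in 96-well plates. Step 2: Expose to compound for 48 hours at 5 concentrations. Step 3: Interpolate endpoints linearly; if unreached, use highest concentration. TGI: concentration producing complete growth inhibition.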

How the values were obtained:
Assay in all cases: NCI anticancer screen, dose series, 48 h
[1] = system: HOP-18 NSCLC
[2] = system: TK-10 renal
[3] = system: SK-MEL-5 melanoma
[4] = system: SNB-19 CNS
[5] = system: SW-620 colon
[6] = system: NCI-H522 lung
[7] = system: CAKI-1 renal
[8] = system: SNB-75 CNS
[9] = system: COLO 205 colon
[10] = system: DMS 114 small cell lung
[11] = system: A498 renal
[12] = system: SF-539 CNS
[13] = system: ACHN renal
[14] = system: K-562 leukemia
[15] = system: NCI-H460 lung
[16] = system: U251 CNS
[17] = system: SF-268 CNS
[18] = system: LOX IMVI melanoma
[19] = system: SN12C renal
[20] = system: HCT-15 colon
[21] = system: M19-MEL melanoma
[22] = system: HL-60(TB) leukemia
[23] = system: MOLT-4 leukemia
[24] = system: OVCAR-3 ovarian
[25] = system: DLD-1 colon
[26] = system: LXFL 529 NSCLC
[27] = system: RPMI-8226 leukemia
[28] = system: UACC-62 melanoma
[29] = system: SK-MEL-2 melanoma
[30] = system: CCRF-CEM leukemia
[31] = system: HOP-92 NSCLC
[32] = system: SF-295 CNS
[33] = system: NCI-H23 lung
[34] = system: SK-MEL-28 melanoma
[35] = system: MALME-3M melanoma
[36] = system: UO-31 renal
[37] = system: IGROV1 ovarian
[38] = system: NCI-H226 lung
[39] = system: KM20L2 colon
[40] = system: SNB-78 CNS
[41] = system: OVCAR-8 ovarian
[42] = system: EKVX NSCLC
[43] = system: M14 melanoma
[44] = system: RXF-631 renal
[45] = system: SK-OV-3 ovarian
[46] = system: HT29 colon
[47] = system: UACC-257 melanoma
[48] = system: HOP-62 NSCLC
[49] = system: A549 NSCLC
[50] = system: RXF 393 renal
[51] = system: KM12 colon
[52] = system: SR leukemia
[53] = system: HCT-116 colon
[54] = system: HCC-2998 colon
[55] = system: 786-0 renal
[56] = system: DMS 273 small cell lung
[57] = system: OVCAR-5 ovarian
[58] = system: OVCAR-4 ovarian

SMILES: C=C(C)C1Cc2c(c3ccccc3n(C)c2=O)O1 (centres undefined)
- TGI [1]: > 100 µM
- TGI [2]: > 100 µM
- TGI [3]: > 100 µM
- TGI [4]: > 100 µM
- TGI [5]: > 100 µM
- TGI [6]: > 100 µM
- TGI [7]: > 100 µM
- TGI [8]: > 100 µM
- TGI [9]: > 100 µM
- TGI [10]: > 100 µM
- TGI [11]: > 100 µM
- TGI [12]: > 100 µM
- TGI [13]: > 100 µM
- TGI [14]: > 100 µM
- TGI [15]: > 100 µM
- TGI [16]: > 100 µM
- TGI [17]: > 100 µM
- TGI [18]: > 100 µM
- TGI [19]: > 100 µM
- TGI [20]: > 100 µM
- TGI [21]: > 100 µM
- TGI [22]: > 100 µM
- TGI [23]: > 100 µM
- TGI [24]: > 100 µM
- TGI [25]: > 100 µM
- TGI [26]: > 100 µM
- TGI [27]: > 100 µM
- TGI [28]: > 100 µM
- TGI [29]: > 100 µM
- TGI [30]: > 100 µM
- TGI [31]: > 100 µM
- TGI [32]: > 100 µM
- TGI [33]: > 100 µM
- TGI [34]: > 100 µM
- TGI [35]: > 100 µM
- TGI [36]: > 100 µM
- TGI [37]: > 100 µM
- TGI [38]: > 100 µM
- TGI [39]: > 100 µM
- TGI [40]: > 100 µM
- TGI [41]: > 100 µM
- TGI [42]: > 100 µM
- TGI [43]: > 100 µM
- TGI [44]: > 100 µM
- TGI [45]: > 100 µM
- TGI [46]: > 100 µM

SMILES: N#Cc1ccc(C=NC23CC4CC(CC(C4)C2)C3)cc1
- TGI [2]: > 100 µM
- TGI [4]: > 100 µM
- TGI [5]: > 100 µM
- TGI [6]: > 100 µM
- TGI [7]: > 100 µM
- TGI [9]: > 100 µM
- TGI [10]: > 100 µM
- TGI [11]: > 100 µM
- TGI [12]: > 100 µM
- TGI [13]: > 100 µM
- TGI [14]: > 100 µM
- TGI [47]: > 100 µM
- TGI [48]: > 100 µM
- TGI [15]: > 100 µM
- TGI [49]: > 100 µM
- TGI [50]: > 100 µM
- TGI [16]: > 100 µM
- TGI [17]: > 100 µM
- TGI [51]: > 100 µM
- TGI [18]: > 100 µM
- TGI [52]: > 100 µM
- TGI [19]: > 100 µM
- TGI [20]: > 100 µM
- TGI [21]: > 100 µM
- TGI [22]: 53 µM
- TGI [23]: > 100 µM
- TGI [24]: > 100 µM
- TGI [53]: > 100 µM
- TGI [54]: > 100 µM
- TGI [27]: > 100 µM
- TGI [28]: > 100 µM
- TGI [55]: > 100 µM
- TGI [29]: > 100 µM
- TGI [56]: > 100 µM
- TGI [30]: > 100 µM
- TGI [31]: > 100 µM
- TGI [32]: > 100 µM
- TGI [33]: > 100 µM
- TGI [34]: > 100 µM
- TGI [35]: > 100 µM
- TGI [36]: > 100 µM
- TGI [37]: > 100 µM
- TGI [38]: > 100 µM
- TGI [39]: > 100 µM
- TGI [40]: > 100 µM
- TGI [41]: > 100 µM
- TGI [42]: > 100 µM
- TGI [43]: > 100 µM
- TGI [44]: > 100 µM
- TGI [45]: > 100 µM
- TGI [57]: > 100 µM
- TGI [58]: > 100 µM
- TGI [46]: > 100 µM
